Results reported in patent publication US10383931B2, “Peptides and combination of peptides for use in immunotherapy against cancers” (IMMATICS BIOTECHNOLOGIES GMBH, priority 2016, dated 2019).

Target: HLA-A*02:01 (Homo sapiens, UniProt P04439, D140Y/D185E/D98H/E176V/E277Q/G131W/G231S/I119V/I121R/I166T/I218V/L300P/L318F/N151K/N90K/P208A/P217A/Q86G/Q94H/R138H/R169H/T345S)
Assay: ELISA-based assay of affinity (KD) to HLA-A*02:01
Assay type: binding
Settings: FIG. 5

For “KIQEILTQV [IGF2BP3-001, HLA-A*02-presented tumor-associated peptide]”, the “binding to HLA-A*02:01 (dissociation constant KD, in words)” value was “very good binding”.
In the case of “MET-001: control peptide, strong binder to HLA-A*02:01 (YVDPVITSI)”, the “binding to HLA-A*02:01 (dissociation constant KD, in words)” value is reported as “strong binder”.
